ChEMBL document CHEMBL4052783, “Effects of novel triple-stage antimalarial ionic liquids on lipid membrane models” (Bioorg Med Chem Lett, 2017)

Assays:
[1] = system: Lipid bilayer; test: Binding affinity to DPPG membrane assessed as change in enthalpy for pre-transition temperature at 1:10 compound/DPPG molar ratio by differential scanning calorimetric method (reference value: 0.74 KJ/mol)
[2] = system: Lipid bilayer; test: Binding affinity to DPPG membrane assessed as main transition temperature at 1:10 compound/DPPG molar ratio by differential scanning calorimetric method (reference value: 40.3 degreeC)
[3] = system: Lipid bilayer; test: Binding affinity to DPPG membrane assessed as pre-transition temperature at 1:10 compound/DPPG molar ratio by differential scanning calorimetric method (reference value: 34.5 degreeC)
[4] = system: Lipid bilayer; test: Binding affinity to DPPC membrane assessed as change in enthalpy for main transition temperature at 1:10 compound/DPPC molar ratio by differential scanning calorimetric method (reference value: 7.22 kJ/mol)
[5] = system: Lipid bilayer; test: Binding affinity to DPPC membrane assessed as main transition temperature at 1:10 compound/DPPC molar ratio by differential scanning calorimetric method (reference value: 41.5 degreeC)
[6] = system: Lipid bilayer; test: Binding affinity to DPPG membrane assessed as change in enthalpy for main transition temperature at 1:10 compound/DPPG molar ratio by differential scanning calorimetric method (reference value: 8.7 KJ/mol)

**Q.** How did the deltaH [1] turn out when `COc1cc(NC(C)CCCNC(=O)/C=C/c2ccc(Cl)cc2)c2ncccc2c1` (stereo not given) was run?
**A.** 0.6 kJ/mol

**Q.** And the Tm [2]?
**A.** 39 °C

**Q.** What about the Tm [3] of the same compound?
**A.** 32.7 °C

**Q.** What about the deltaH [4] of the same compound?
**A.** 8.56 kJ/mol

**Q.** And the Tm [5]?
**A.** 40.1 °C

**Q.** What about the deltaH [6] of the same compound?
**A.** 10.3 kJ/mol

**Q.** Which results are given for `CC(C)c1ccc(/C=C/C(=O)O)cc1.COc1cc(NC(C)CCCN)c2ncccc2c1` (stereo not given)?
**A.** Tm [2]: 38.3 °C; deltaH [4]: 9.3 kJ/mol; Tm [5]: 40.2 °C; deltaH [6]: 9.82 kJ/mol

**Q.** For `COc1cc(NC(C)CCCNC(=O)/C=C/c2ccc(C(C)C)cc2)c2ncccc2c1` (stereo not given), which deltaH [1] is on record?
**A.** 0.43 kJ/mol

**Q.** And the Tm [2]?
**A.** 39 °C

**Q.** What about the Tm [3] of the same compound?
**A.** 32.4 °C

**Q.** And the deltaH [4]?
**A.** 7.91 kJ/mol

**Q.** And the Tm [5]?
**A.** 40.1 °C

**Q.** What about the deltaH [6] of the same compound?
**A.** 9.3 kJ/mol

**Q.** Which results are given for `COc1cc(NC(C)CCCN)c2ncccc2c1.O=C(O)/C=C/c1ccc(Cl)cc1` (stereo not given)?
**A.** Tm [2]: 38.1 °C; deltaH [4]: 9.6 kJ/mol; Tm [5]: 40.7 °C; deltaH [6]: 9.31 kJ/mol
